Laboratory results reported in patent US11819556B2, “Stabilized compositions of radionuclides and uses thereof” (RayzeBio, Inc., priority 2021, dated 2023).
Like-named read-outs stand apart in the source and are kept apart here.

Conditions: 0.03 mCi/ml, excipient 1 mg/ml in sodium acetate-acetic acid buffer pH 5.80, 25° C.
Protocol: After drying in an incubator at a temperature of 38° C., the radio-TLC conversion was analyzed at different time points with a radio-TLC reader (Eckert & Ziegler AR-2000) set at High Voltage=1000 (to ensure alpha detection) until the ratio between labeled product and the free Ac225 ion no longer change (typically after 6-8 hours of TLC separation to ensure equilibrium between Ac225 and daughter nuclides).
The formulations were buffered with sodium acetate-acetic acid 0.4 M solution to pH 5.80 (±0.10). […] Sodium L-Ascorbate/L-Ascorbic acid buffer was adjusted to pH 5.80 (±0.10). Water for Injection (WFI) with the same dilution without any excipient is used as the control formulation. The mixture was kept at room temperature (25° C.).

Compound	Percentage of ^225Ac present in [^225Ac]Ac-DOTA-TATE (24 hours after mixing) [%]	Percentage of ^225Ac present in [^225Ac]Ac-DOTA-TATE (48 hours after mixing) [%]
O=C(O)CCCC[C@@H]1CCSS1 (racemic) [Lipoic Acid]	92.97	87.93
CCO [10% EtOH, EtOH]	96.35	92.16
O=C(O)CC(O)(CC(=O)O)C(=O)O [Citric Acid]	90.20	82.18
N[C@H](CS)C(=O)O [D-Cysteine]	93.45	87.66
O=C(O)CN(CCN(CC(=O)O)CC(=O)O)CCN(CC(=O)O)CC(=O)O [DTPA, Diethylenetriaminepentaacetic acid]	95.77	91.38
N[C@@H](CCC(=O)N[C@@H](CS)C(=O)NCC(=O)O)C(=O)O [L-Glutathione]	91.18	85.56
NCCCC[C@H](N)C(=O)O [L-Lysine]	95.45	89.52
CSCC[C@H](N)C(=O)O [L-Methionine]	93.39	89.58
CC(=O)N[C@@H](CS)C(=O)O [N-Acetyl-L-Cysteine]	91.19	87.41
Oc1ccccc1 [Phenol]		87.88
O=C(O)c1ccccc1O [Salicylic Acid]	93.08	87.65
O=C1O[C@H]([C@@H](O)CO)C([O-])=C1O.[Na+] [Sodium Ascorbate, pH 5.8, Sodium Ascorbate]		92.21
O=S([O-])O.[Na+] [Sodium Bisulfite]	0	
